Measured values as given in PubChem BioAssay AID328 (DTP/NCI, 2004).
Where “and” joins values, the source holds several entries; their conditions need not be identical. Equal values may be shown once. Inconclusive results and toxic doses are left out. Non-standard residues stand in square brackets, D forms with d. Residues, ends and D or L forms follow the SMILES beside them. ξ: configuration not given here. *: point of attachment. Cbz = O=C(OCc1ccccc1)*; ξK = NCCCCC(N)C(=O)O

Tested on: BDF1 mice, P388 leukemia ip, median survival T/C
Experiment: NCI In Vivo Anticancer Drug Screen. Data for tumor model P388 Leukemia (intraperitoneal) in B6D2F1 (BDF1) mice
Conditions: endpoint: median survival time, higher = longer survival
Summary of the method: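 Compound-treated tumour-bearing mice were compared with vehicle-treated controls. Survival was recorded, and the value is the treated-group measurement divided by the control-group measurement (T/C).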

[1] = dose: 0.78 mg/kg/injection, schedule: Q01DX009 (ip), vehicle: saline with Tween-80
[2] = dose: 1.56 mg/kg/injection, schedule: Q01DX009 (ip), vehicle: saline with Tween-80
[3] = dose: 3.12 mg/kg/injection, schedule: Q01DX009 (ip), vehicle: saline with Tween-80
[4] = dose: 6.25 mg/kg/injection, schedule: Q04DX003 (ip), vehicle: saline with Tween-80
[5] = dose: 12.5 mg/kg/injection, schedule: Q04DX003 (ip), vehicle: saline with Tween-80
[6] = dose: 25.0 mg/kg/injection, schedule: Q04DX003 (ip), vehicle: saline with Tween-80
[7] = dose: 25.0 mg/kg/injection, schedule: Q01DX009 (ip), vehicle: saline
[8] = dose: 50.0 mg/kg/injection, schedule: Q01DX009 (ip), vehicle: saline
[9] = dose: 50.0 mg/kg/injection, schedule: Q01DX009 (ip), vehicle: saline with Tween-80
[10] = dose: 100.0 mg/kg/injection, schedule: Q01DX009 (ip), vehicle: saline with Tween-80
[11] = dose: 200.0 mg/kg/injection, schedule: Q01DX009 (ip), vehicle: saline with Tween-80
[12] = dose: 300.0 mg/kg/injection, schedule: Q01DX009 (ip), vehicle: Klucel (hydroxypropylcellulose) (HPC)
[13] = dose: 400.0 mg/kg/injection, schedule: Q01DX009 (ip), vehicle: saline
[14] = dose: 50.0 mg/kg/injection, schedule: Q04DX003 (ip), vehicle: saline with Tween-80
[15] = dose: 100.0 mg/kg/injection, schedule: Q04DX003 (ip), vehicle: saline with Tween-80
[16] = dose: 100.0 mg/kg/injection, schedule: Q04DX003 (ip), vehicle: saline
[17] = dose: 200.0 mg/kg/injection, schedule: Q04DX003 (ip), vehicle: saline
[18] = dose: 400.0 mg/kg/injection, schedule: Q04DX003 (ip), vehicle: saline
[19] = dose: 100.0 mg/kg/injection, schedule: Q01DX009 (ip), vehicle: saline
[20] = dose: 200.0 mg/kg/injection, schedule: Q01DX009 (ip), vehicle: saline

For `CC1(C)CN(Cc2ccccc2)C(C)(C)CN1`, the T/C [1] was 89 % of control, the T/C [2] was 97 % of control and the T/C [3] was 95 % of control. For the same compound, the T/C (dose: 3.12 mg/kg/injection, schedule: Q04DX003 (ip), vehicle: saline with Tween-80) was 114 % of control, the T/C (dose: 6.25 mg/kg/injection, schedule: Q01DX009 (ip), vehicle: saline with Tween-80) was 91 % of control and the T/C [4] was 108 % of control. The T/C [5] was 96 % of control and the T/C [6] was 89 % of control.
For `NCC(=O)NC(CCCCNC(=O)OCc1ccccc1)C(=O)O` (configuration not stated) (H-Gly-[ξK](Cbz)-OH), the T/C (dose: 12.5 mg/kg/injection, schedule: Q01DX005 (ip), vehicle: saline with Tween-80) was 106 % of control and the T/C (dose: 25.0 mg/kg/injection, schedule: Q01DX005 (ip), vehicle: saline with Tween-80) was 104 % of control.
`Cc1ccc2nc(-c3ccc(CSC(=N)N)cc3)oc(=O)c2c1` was tested, and the T/C [1] was 96 % of control, the T/C [2] was 99 % of control and the T/C [3] was 96 % of control.
`Cc1cc(NC(=O)NCCOc2ccc(N3C(N)=NC(N)=NC3(C)C)cc2Cl)ccc1S(=O)(=O)F` was tested, and the T/C (dose: 12.5 mg/kg/injection, schedule: Q01DX009 (ip), vehicle: saline) was 100 % of control, the T/C [7] was 113 % of control and the T/C [8] was 122 % of control.
In the case of `O=C1CCCCCCC1Cc1cc(O)c(CC2CCCCCCC2=O)cc1O` (configuration not stated), the T/C [9] is reported as 90 % of control, the T/C [10] is reported as 91 % of control and the T/C [11] is reported as 86 % of control.
In the case of `CC(C(=O)O)c1ccc2c(c1)[nH]c1ccc(Cl)cc12` (configuration not stated), the T/C [10] is reported as 89 % of control and the T/C [11] is reported as 91 % of control.
In the case of `O=c1cnn(C2OC(CO)C(O)C2O)c(=O)[nH]1` (configuration not stated), the T/C (dose: 12.5 mg/kg/injection, schedule: Q01DX009 (ip), vehicle: Klucel (hydroxypropylcellulose) (HPC)) is reported as 108 % of control and 115 % of control, the T/C (dose: 25.0 mg/kg/injection, schedule: Q01DX009 (ip), vehicle: Klucel (hydroxypropylcellulose) (HPC)) is reported as 123 % of control and the T/C (dose: 75.0 mg/kg/injection, schedule: Q01DX009 (ip), vehicle: Klucel (hydroxypropylcellulose) (HPC)) is reported as 112 % of control. The T/C (dose: 150.0 mg/kg/injection, schedule: Q01DX009 (ip), vehicle: Klucel (hydroxypropylcellulose) (HPC)) was 106 % of control, the T/C (dose: 180.0 mg/kg/injection, schedule: Q01DX009 (ip), vehicle: saline) was 111 % of control and the T/C (dose: 200.0 mg/kg/injection, schedule: Q01DX010 (ip), vehicle: saline) was 116 % of control and 122 % of control. For the same compound, the T/C (dose: 268.0 mg/kg/injection, schedule: Q01DX009 (ip), vehicle: saline) was 111 % of control, the T/C [12] was 106 % of control and the T/C [13] was 117 % of control. For the same compound, the T/C (dose: 400.0 mg/kg/injection, schedule: Q01DX010 (ip), vehicle: saline) was 154 % of control, the T/C (dose: 600.0 mg/kg/injection, schedule: Q01DX009 (ip), vehicle: saline) was 109 % of control and the T/C (dose: 1200.0 mg/kg/injection, schedule: Q01DX009 (ip), vehicle: Klucel (hydroxypropylcellulose) (HPC)) was 91 % of control. The T/C (dose: 1600.0 mg/kg/injection, schedule: Q01DX010 (ip), vehicle: saline) was 100 % of control.
With `O=C(O)C1CCCN1C(=O)c1ccc(Cl)c(Cl)c1` (configuration not stated) the T/C (dose: 50.0 mg/kg/injection, schedule: Q01DX005 (ip), vehicle: saline with Tween-80) was 100 % of control, the T/C (dose: 100.0 mg/kg/injection, schedule: Q01DX005 (ip), vehicle: saline with Tween-80) was 93 % of control and the T/C (dose: 200.0 mg/kg/injection, schedule: Q01DX005 (ip), vehicle: saline with Tween-80) was 99 % of control.
With `Cc1c2oc3c(C)ccc(C(=O)NCc4ccccc4)c3nc-2c(C(=O)NCc2ccccc2)c(N)c1=O` the T/C (dose: 100.0 mg/kg/injection, schedule: Q04DX002 (sc), vehicle: olive oil, sesame oil, peanut oil) was 99 % of control, the T/C (dose: 200.0 mg/kg/injection, schedule: Q04DX002 (sc), vehicle: olive oil, sesame oil, peanut oil) was 98 % of control and the T/C (dose: 400.0 mg/kg/injection, schedule: Q04DX002 (sc), vehicle: olive oil, sesame oil, peanut oil) was 101 % of control.
With `C[C@@H]1CN(C(=O)CCOS(C)(=O)=O)[C@@H](C)CN1C(=O)CCOS(C)(=O)=O` the T/C [14] was 166 % of control, the T/C [10] was 272 % of control and the T/C [15] was 208 % of control. The T/C [11] was 104 % of control, the T/C (dose: 200.0 mg/kg/injection, schedule: Q04DX003 (ip), vehicle: saline with Tween-80) was 172 % of control and the T/C (dose: 264.0 mg/kg/injection, schedule: Q04DX003 (ip), vehicle: saline with Tween-80) was 233 % of control. For the same compound, the T/C (dose: 400.0 mg/kg/injection, schedule: Q04DX003 (ip), vehicle: saline with Tween-80) was 250 % of control and 272 % of control.
In the case of `CC1(C)N=C(N)N=C(N)N1c1cccc(CCCCOc2ccccc2)c1`, the T/C (dose: 8.0 mg/kg/injection, schedule: Q01DX009 (ip), vehicle: saline with Tween-80) is reported as 150 % of control, the T/C (dose: 12.0 mg/kg/injection, schedule: Q01DX009 (ip), vehicle: saline with Tween-80) is reported as 150 % of control and the T/C (dose: 18.0 mg/kg/injection, schedule: Q01DX009 (ip), vehicle: saline with Tween-80) is reported as 170 % of control.
In the case of `CC(C(=O)c1ccc(Br)cc1)C(Br)c1ccccc1` (configuration not stated), the T/C [9] is reported as 90 % of control, the T/C [10] is reported as 113 % of control and the T/C [16] is reported as 88 % of control. The T/C [11] was 88 % of control, the T/C [17] was 99 % of control and the T/C (dose: 400.0 mg/kg/injection, schedule: Q01DX009 (ip), vehicle: saline with Tween-80) was 97 % of control. For the same compound, the T/C [18] was 91 % of control.
For `C1CCCC(NC2=NCCO2)CCC1`, the T/C [4] was 100 % of control, the T/C [5] was 109 % of control and the T/C [6] was 95 % of control.
With `N#C/C(=C\C=C\c1ccccc1)C(N)=O` the T/C [9] was 110 % of control, the T/C [10] was 120 % of control and the T/C [11] was 120 % of control.
For `Cc1cccc(CSc2nc(N)nc3ncn(C4CC(O)C(CO)O4)c23)n1` (configuration not stated), the T/C [19] was 103 % of control, the T/C [16] was 100 % of control and the T/C [20] was 97 % of control. For the same compound, the T/C [17] was 104 % of control, the T/C [13] was 103 % of control and the T/C [18] was 100 % of control.
For `O=C(Nc1cccc2ccccc12)C(F)(F)F`, the T/C (dose: 12.5 mg/kg/injection, schedule: Q01DX009 (ip), vehicle: saline with Tween-80) was 109 % of control, the T/C (dose: 25.0 mg/kg/injection, schedule: Q01DX009 (ip), vehicle: saline with Tween-80) was 104 % of control and the T/C [6] was 91 % of control. The T/C [9] was 100 % of control, the T/C [14] was 99 % of control and the T/C [10] was 118 % of control. The T/C [15] was 90 % of control and 103 % of control.
For `CC(C)(C1=CC=CS1(=O)=O)C1=CC=C(C(C)(C)C2=CC=CS2(=O)=O)S1(=O)=O`, the T/C (dose: 100.0 mg/kg/injection, schedule: Q01DX001 (ip), vehicle: saline with Tween-80) was 102 % of control, the T/C (dose: 200.0 mg/kg/injection, schedule: Q01DX001 (ip), vehicle: saline with Tween-80) was 94 % of control and the T/C (dose: 400.0 mg/kg/injection, schedule: Q01DX001 (ip), vehicle: saline with Tween-80) was 106 % of control.
For `Cn1c[n+](C)ccc1=O`, the T/C (dose: 100.0 mg/kg/injection, schedule: Q01DX009 (ip), vehicle: water) was 97 % of control, the T/C (dose: 100.0 mg/kg/injection, schedule: Q04DX003 (ip), vehicle: water) was 91 % of control and the T/C (dose: 200.0 mg/kg/injection, schedule: Q01DX009 (ip), vehicle: water) was 107 % of control. The T/C (dose: 200.0 mg/kg/injection, schedule: Q04DX003 (ip), vehicle: water) was 88 % of control, the T/C (dose: 400.0 mg/kg/injection, schedule: Q01DX009 (ip), vehicle: water) was 97 % of control and the T/C (dose: 400.0 mg/kg/injection, schedule: Q04DX003 (ip), vehicle: water) was 89 % of control.
For `CC(C)(O)C(NC(N)=O)c1ccccc1` (configuration not stated), the T/C [9] was 104 % of control, the T/C [10] was 101 % of control and the T/C [11] was 100 % of control.
`CC(C)SC=O` was tested, and the T/C [7] was 100 % of control, the T/C [8] was 101 % of control and the T/C (dose: 50.0 mg/kg/injection, schedule: Q04DX003 (ip), vehicle: saline) was 101 % of control. For the same compound, the T/C [19] was 92 % of control and 97 % of control, the T/C [16] was 109 % of control and the T/C [20] was 86 % of control. For the same compound, the T/C [17] was 98 % of control, the T/C [13] was 97 % of control and 118 % of control and the T/C [18] was 103 % of control.
`COc1ccc(P(=S)(S)c2ccc(OC)cc2)cc1` was tested, and the T/C (dose: 100.0 mg/kg/injection, schedule: Q01DX009 (ip), vehicle: Klucel (hydroxypropylcellulose) (HPC)) was 100 % of control and the T/C [12] was 95 % of control.
`CSc1nc(Cl)c(Br)c(Sc2nc(N)nc3nc[nH]c23)n1` was tested, and the T/C (dose: 132.0 mg/kg/injection, schedule: Q04DX003 (ip), vehicle: saline with Tween-80) was 120 % of control.
`ClC(Cl)(Cl)SSC(=Nc1ccccc1)SSC(Cl)(Cl)Cl` was tested, and the T/C [9] was 106 % of control and the T/C [10] was 117 % of control.
